Assay: Exposure of DTE- or DTT-based dimers to glutathione, release of dimer phosphodiester
Assay type: physicochemical
Experimental: The half life of prodrug-dimer 5-2 was dependent on the character and excess of the reducing reagent (500:1/Prodrug:GSH), in this instance approximately 4 hours. The kinetics of the release was also dependent on pH and 1M TRIS hydrochloride buffers of pH values varied between 5.0 and 7.8 were used.

In the case of `C#CCO[C@@H]1CSSC[C@H]1OP(=O)(OC[C@H]1O[C@@H](n2ccc(=O)[nH]c2=O)[C@H](OC)[C@@H]1OC(=O)CCC(C)=O)O[C@H]1[C@@H](OC)[C@H](n2ccc(=O)[nH]c2=O)O[C@@H]1COC(c1ccccc1)(c1ccc(OC)cc1)c1ccc(OC)cc1` (stereo partly drawn) [Compound 5-2, (2R,3R,4R,5R)-2-{[({[(2R,3R,4R,5R)-2-{[bis(4-methoxyphenyl)(phenyl)methoxy]methyl}-5-(2,4-dioxo-3,4-dihydropyrimidin-1(2H)-yl)-4-methoxytetrahydrofuran-3-yl]oxy}{[(4S,5S)-5-(prop-2-yn-1-yloxy)-1,2-dithian-4-yl]oxy}phosphoryl)oxy]methyl}-5-(2,4-dioxo-3,4-dihydropyrimidin-1(2H)-yl)-4-methoxytetrahydrofuran-3-yl 4-oxopentanoate], the half-life (1M TRIS hydrochloride buffer with glutathione (GSH), pH 7.3, 500:1/Prodrug:GSH, pH 7.30, 1M TRIS hydrochloride buffer) is reported as about 4 h and the “release at acidic conditions” value (buffers of pH between 5.0 and 7.8) is reported as “considerably slower”.

Source: patent publication US9884886B2, “Disulfide masked prodrug compositions and methods” (Merck Sharp & Dohme Corp., priority 2012, dated 2018)
